Results from the supplement of paper PMC10307832.

What was measured:
Assay in all cases: relative viability (nuclei count vs DMSO), 5 days (fraction); higher = more cells survive
Quizartinib + Bortezomib = compound: CC(C)(C)c1cc(NC(=O)Nc2ccc(-c3cn4c(n3)sc3cc(OCCN5CCOCC5)ccc34)cc2)no1 [Quizartinib] + CC(C)C[C@H](NC(=O)[C@H](Cc1ccccc1)NC(=O)c1cnccn1)B(O)O [Bortezomib] (partner 0.002 µM)
In short: (§1)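 Cells from lung cancer lines were seeded into 1536-well plates and, one day later, dosed by pin tool. Treatments were either a single drug or a fixed dose of an anchor drug with five library-drug doses (not always all listed) in √10 steps. After 5 days, nuclei were stained in a one-step fixation (final 0.05% Triton X-100, 1% formaldehyde, 1 ug/ml Hoechst) and counted on 4× images, and relative viability is the treated-to-vehicle nuclei ratio, as the median of duplicate plates.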

Quizartinib + Dasatinib = compound: CC(C)(C)c1cc(NC(=O)Nc2ccc(-c3cn4c(n3)sc3cc(OCCN5CCOCC5)ccc34)cc2)no1 [Quizartinib] + Cc1nc(Nc2ncc(C(=O)Nc3c(C)cccc3Cl)s2)cc(N2CCN(CCO)CC2)n1 [Dasatinib] (partner 0.075 µM)
In short: as §1

YM155 + Trametinib = compound: COCC[n+]1c2c(n(Cc3cnccn3)c1C)C(=O)c1ccccc1C2=O [YM155] + CC(=O)Nc1cccc(-n2c(=O)n(C3CC3)c(=O)c3c(Nc4ccc(I)cc4F)n(C)c(=O)c(C)c32)c1 [Trametinib] (partner 0.02 µM)
In short: as §1

YM155 + Foretinib = compound: COCC[n+]1c2c(n(Cc3cnccn3)c1C)C(=O)c1ccccc1C2=O [YM155] + COc1cc2c(Oc3ccc(NC(=O)C4(C(=O)Nc5ccc(F)cc5)CC4)cc3F)ccnc2cc1OCCCN1CCOCC1 [Foretinib] (partner 0.25 µM)
In short: as §1

Cell Line | relative viability (Quizartinib + Bortezomib; first compound 0.001 µM) | relative viability (Quizartinib + Bortezomib; first compound 0.003162 µM) | relative viability (Quizartinib + Bortezomib; first compound 0.01 µM) | relative viability (Quizartinib + Bortezomib; first compound 0.03162 µM) | relative viability (Quizartinib + Bortezomib; first compound 0.1 µM) | relative viability (Quizartinib + Dasatinib; first compound 0.001 µM) | relative viability (Quizartinib + Dasatinib; first compound 0.003162 µM) | relative viability (Quizartinib + Dasatinib; first compound 0.01 µM) | relative viability (Quizartinib + Dasatinib; first compound 0.03162 µM) | relative viability (Quizartinib + Dasatinib; first compound 0.1 µM) | relative viability (YM155 + Trametinib; first compound 0.002 µM) | relative viability (YM155 + Trametinib; first compound 0.006325 µM) | relative viability (YM155 + Trametinib; first compound 0.02 µM) | relative viability (YM155 + Trametinib; first compound 0.06325 µM) | relative viability (YM155 + Foretinib; first compound 0.002 µM) | relative viability (YM155 + Foretinib; first compound 0.006325 µM) | relative viability (YM155 + Foretinib; first compound 0.02 µM) | relative viability (YM155 + Foretinib; first compound 0.06325 µM)
NCI-H838 | 0.458 | 0.763 | 0.65 | 0.926 | 0.534 | 0.272 | 0.329 | 0.276 | 0.296 | 0.257 | 0.461 | 0.505 | 0.508 | 0.372 | 1.04 | 1.02 | 1.09 | 0.479
NCI-H1355 | 1.07 | 1.28 | 1.09 | 1.25 | 1.28 | 0.719 | 0.762 | 0.684 | 0.747 | 0.66 | 0.509 | 0.454 | 0.473 | 0.406 | 0.932 | 1.02 | 1.06 | 0.964
NCI-H1437 | 0.354 | 0.492 | 0.393 | 0.49 | 0.255 | 0.375 | 0.467 | 0.384 | 0.27 | 0.363 | 0.42 | 0.564 | 0.534 | 0.469 | 1.21 | 1.24 | 1.26 | 0.984
NCI-H1650 | 0.139 | 0.184 | 0.207 |  | 0.191 | 0.283 | 0.328 | 0.298 |  | 0.245 | 0.478 | 0.581 | 0.458 | 0.355 | 1.07 | 1.11 | 0.932 | 0.57
NCI-H1651 | 0.801 | 0.938 | 1.08 | 0.888 | 0.993 | 0.306 | 0.429 | 0.392 | 0.296 | 0.441 | 0.863 | 0.755 | 0.867 | 0.962 | 0.864 | 0.785 | 0.84 | 0.603
NCI-H1666 | 0.738 | 0.753 | 0.823 | 0.511 | 0.813 | 0.836 | 0.782 | 0.737 | 0.582 | 0.757 | 0.865 | 0.896 | 0.874 | 0.903 | 0.917 | 0.996 | 0.988 | 0.942
NCI-H1734 | 0.862 | 0.769 | 1.05 | 0.776 | 0.944 | 0.408 | 0.421 | 0.431 | 0.481 | 0.453 | 0.672 | 0.658 | 0.724 | 0.741 | 0.853 | 0.723 | 0.914 | 0.989
NCI-H1755 | 0.858 | 0.979 | 0.956 | 0.973 | 0.969 | 0.389 | 0.367 | 0.409 | 0.429 | 0.404 | 0.764 | 0.752 | 0.751 | 0.755 | 0.853 | 0.934 | 0.884 | 0.976
NCI-H1915 | 0.924 | 0.836 | 0.916 | 1.06 | 1.01 | 0.344 | 0.329 | 0.262 | 0.303 | 0.324 | 0.303 | 0.295 | 0.3 | 0.349 | 1.05 | 1.08 | 1.08 | 0.963
NCI-H1975 | 0.333 | 0.374 | 0.389 | 0.368 | 0.497 | 0.415 | 0.305 | 0.367 | 0.297 | 0.325 | 0.291 | 0.299 | 0.406 | 0.236 | 0.978 | 0.907 | 0.933 | 0.308
NCI-H1993 | 1.2 | 1.17 | 1.19 | 1.02 | 1.33 | 0.636 | 0.478 | 0.58 | 0.644 | 0.662 | 0.466 | 0.536 | 0.427 | 0.453 | 0.659 | 0.709 | 0.811 | 0.64
NCI-H2009 | 0.423 | 0.879 | 0.948 | 1.02 | 0.926 | 0.283 | 0.29 | 0.252 | 0.326 | 0.26 | 0.273 | 0.295 | 0.354 | 0.358 | 1.24 | 1.21 | 1.09 | 0.583
NCI-H2023 | 0.777 | 0.947 | 0.942 | 0.751 | 0.926 | 0.428 | 0.507 | 0.634 |  | 0.613 | 0.538 | 0.617 | 0.451 | 0.241 | 0.999 | 0.662 | 0.767 | 0.368
NCI-H2085 | 0.981 | 0.994 | 1.1 | 0.952 | 0.982 | 0.282 | 0.237 | 0.253 | 0.231 | 0.236 | 0.573 | 0.659 | 0.679 | 0.348 | 0.887 | 0.922 | 0.915 | 0.629
NCI-H2087 | 0.833 | 0.927 | 0.88 | 0.939 | 0.914 |  | 0.699 | 0.863 | 0.626 | 0.979 | 0.143 | 0.179 | 0.271 | 0.225 | 1.17 | 0.968 | 1.07 | 0.869
NCI-H2126 | 0.708 | 1.06 | 1.12 | 1.14 | 1.15 | 0.454 | 0.603 | 0.655 |  | 0.625 | 0.558 | 0.582 | 0.541 | 0.556 | 0.893 | 1.07 | 1.25 | 1.29
NCI-H2228 | 1.05 | 0.995 | 0.937 | 0.92 | 1.08 | 0.608 | 0.413 | 0.597 | 0.494 | 0.509 | 0.485 | 0.444 | 0.565 | 0.589 | 0.772 | 0.912 | 0.867 | 0.708
NCI-H2347 | 0.757 | 1.14 | 0.968 | 0.959 | 1.23 | 0.3 | 0.298 | 0.296 | 0.376 | 0.304 | 0.279 | 0.258 | 0.306 | 0.283 | 0.767 | 0.907 | 1.38 | 0.892
NCI-H2405 | 0.689 | 1.01 | 1.01 | 1.01 | 0.984 | 0.266 | 0.198 | 0.216 | 0.202 | 0.244 | 0.661 | 0.595 | 0.596 | 0.384 | 1.04 | 1.03 | 0.936 | 0.64
NCI-H3122 | 1.01 | 1 | 1.09 | 1.02 | 0.983 | 0.92 | 0.565 | 1 | 0.721 | 0.838 | 0.191 | 0.202 | 0.242 | 0.203 | 0.923 | 1 | 0.927 | 0.933
PC-3 [JPC-3] | 0.782 | 0.822 | 0.859 | 0.791 | 0.841 | 0.925 | 0.967 | 1.09 | 1.01 | 1.03 | 0.774 | 0.666 | 0.685 | 0.598 | 1.04 | 1.08 | 1.11 | 1.02
PC-14 | 0.768 | 0.846 | 0.971 | 0.826 | 0.644 | 0.262 | 0.238 | 0.321 |  | 0.254 | 0.617 | 0.672 | 0.36 | 0.119 | 0.83 | 0.911 | 0.908 | 1.02
RERF-LC-KJ | 1.04 | 1.15 | 1.26 | 1.1 | 1.06 | 0.765 | 0.755 | 0.794 | 0.414 | 0.681 | 0.896 | 0.952 | 0.942 | 0.707 | 0.945 | 0.837 | 0.909 | 0.854
SK-LU-1 | 0.95 | 1.12 | 1.24 | 0.969 | 1.2 | 0.178 | 0.169 | 0.204 | 0.183 | 0.232 | 0.455 | 0.456 | 0.564 | 0.438 | 0.766 | 0.738 | 0.904 | 0.661
SW 1573 | 0.71 | 0.804 | 1.24 | 0.684 | 1.01 | 0.417 | 0.481 | 0.561 |  | 0.76 | 0.59 | 0.453 | 0.16 | 0.0853 | 0.986 | 0.974 | 0.92 | 0.877
UMC-11 | 0.242 | 0.852 | 0.875 | 0.769 | 0.653 |  | 0.386 | 0.487 | 0.434 | 0.454 | 0.56 | 0.745 | 0.771 | 0.739 | 0.966 | 1.1 | 1.08 | 1.12
